In patent publication US20220339257A1, “METHODS TO INCREASE THE SENSITIVITY AND REVERSING THE RESISTANCE TO DRUGS” (Biomarker Strategies, LLC, priority 2019, published 2022):

Columns and labels:
Type in all cases: cell-based
Ca9-22 cells = experiment: Western blot of protein biomarkers; settings: osimertinib (100 nM)+IL-17 (10 ng/mL)
Description: (§1) MTA and EM effects on protein biomarker expression were measured by western blotting. For the assay cell lines (Ca9-22, PE/CA-PJ15, HTB-38, HPAF-II, CAL27, BICR-16, A-253, Calu-6, PC-9, H1838, RPMI-7951 and A7) were cultured and treated with doses of MTAs alone, EMs alone and in combination and then lysed for protein analysis. This method can readily be conducted under adherent or suspension conditions, manually or on automated instruments, such as SnapPath. A total of 0.3×10^6 cells per well were seeded in 6 well plates with 10% FBS-containing media and incubated for 24 hours. Cells were then treated with MTA and/or EM concentrations for 24 hours. For total protein extraction, briefly, each sample media was collected, and wells were washed with HMS, and the wash was combined with its respective media collection. Cells were then detached using Accutase solution and again collected in its respective sample media and another HMS well wash and collection was performed. All cell solutions were centrifuged, washed with ice-cold PBS, and centrifuged again. Cell pellets were lysed in 250 μL of ice-cold 1× lysis buffer with protease and phosphatase inhibitor cocktails and incubated for 10 minutes on ice. Lysates were clarified with a centrifugation (14,000 rpm) for 10 minutes at 4° C. Cell lysates were quantified using Bio-Rad DC Protein Assay (Bio-Rad Cat. #5000116).
(§2) For all western blots, an equal amount of protein (3-5 μg) was loaded into SDS-polyacrylamide gels (Mini-Protean TGX Precast Gel; Bio-Rad, e.g. 7.5%, Cat. #4561024; 10%, Cat. #4561035; 12%, Cat. #4561045; or 4-15%, Cat. #4561085). Proteins were separated at 215V for at least 30 minutes in 1× Tris/Glycine/SDS buffer (Bio-Rad Cat. #1610772) and transferred to PVDF membranes using a Trans-Blot Turbo (Bio-Rad Cat. #1704155) for 7 minutes in transfer buffer (Trans-Blot Turbo Transfer Kit, Bio-Rad Cat. #1704273). Blots were blocked at room temperature for 1 hour with 5% non-fat dry milk in tris-buffered saline with Tween 20 (TBST; 15 mM Tris-HCl, pH 7.5, 200mMNaCl and 0.1% Tween 20). Membranes were incubated with primary antibodies at 4° C. overnight and at room temperature for 1 hour the next day; all primary antibodies were diluted following manufacturer's specifications in TBST with either 5% BSA or 5% non-fat dry milk. Membranes were washed in TBST for 5 minutes, three times, and incubated with HRP-conjugated secondary antibodies diluted 1:5000 in TBST with 5% non-fat dry milk at room temperature for 1 hour (anti-rabbit IgG, Bio-Rad Cat. #1706515; or anti-mouse IgG, Bio-Rad Cat. #1706516). Membranes were then washed in TBST for 10 minutes, three times, and target proteins were identified using Clarity Western ECL Substrate (Bio-Rad Cat. #1705061) on autoradiography film (GenHunter Cat. #B581, Nashville, Tenn., USA). Other assay types, such as Luminex multiplexed immunoassays, ICC, IHC, flow cytometry, etc. can be used readily.

HPAF-II cells = experiment: Western blot of protein biomarkers; settings: trametinib (100 nM)+IL-17 (10 ng/mL), 24 hours
Description: as §1, §2

HPAF-II = experiment: WST-8 cell viability assay
Description: (§3) Day 1: cells were harvested cells from flask (4 mL accutase for T175 for 3-5 minutes), and spin down for 5 mins at 1200 rpm. The supernatant was poured off, and the pellet gently resuspended in 1 mL media. Countess counts were performed, and the cells were diluted in media (10% FBS). With multi-channel pipette, 2500 cells were seeded in 100 uL of media (10% FBS) in each well of 96 well plate. The cells were let to adhere and grow for 24 hours. Day 2: serial drug dilutions of MTAs+/−EMs at 5× of concentrations (as done above) were performed in media (10% FBS). 20 uL of media form each well of the 96 well plate (80 uL media left in wells) was removed, and 20 uL of appropriate 5× drug dilutions was added to each respective well (for a 1× conc). The cells were incubated with drug for 72 hours in 37C incubator. Day 5: 10 uL of WST-8 reagent was added to each well of the 96 well plate and mixed gently. the plates were incubated up to 4 hours at 37C in dark, and absorbance readings were taken at […] and 600 nm wavelengths at 1, 2, 3 and 4h, until control absorbance levels were 1.5-2.0).
(§4) WST-8 Assay: MTA and EM effects on cell viability were measured by Cell Counting Kit8 (WST-8) colorimetric assay using water-soluble tetrazolium salt WST-8 reagent (Vita Scientific Cat. #DBOC00128). For the assay, cells were seeded in 96-well plates at 2,500 cells per well, in 100 μL of 10% FBS-containing media. After 24 hours, a 1 nM to 10 μM range of MTA and/or 1 ng/mL to 1 mg/mL range of EM doses was added and incubated for 72 hours. After treatment, a 10% volume of WST-8 reagent was added to each well and cells were incubated at 37° C. for up to 4 hours. Solution absorbance was measured at wavelengths of 450 nm and 600 nm at 1-, 2-, 3-, and 4-hour's incubation. Percentage viability of drug-treated cells was calculated relative to untreated control cells. Results were confirmed by three independent experiments.
(§5) For studying the effects of various molecularly targeted agents (MTAs) and enhancer molecules (EMs) alone as well as in combination: HCC827, PC-9, A427, Calu-6, H2228, H358, H1299, H460, H292, H1838, H2170, and H226 (non-small cell lung cancer; NSCLC); and SK-MES-1 […], CAL27, OE21, KYSE-70, A-253, BICR-16, PE/CA-PJ15 and Ca9-22 (head and neck squamous cell carcinoma; HNSCC); SK-MEL-2, SK-MEL-28, RPMI-7951 and A7 (melanoma); HTB-38 and HCT116 (colorectal cancer; CRC); BxPC-3 and HPAF-II (pancreatic cancer); HEPG2 (hepatocellular carcinoma; HCC); A498 (renal cell carcinoma; RCC) cells were used. Other cell lines, including those from other cancer types, or cells collected from more complex sample types such as xenografts and clinical samples can be used. Ultimately, these combinations can be utilized in various clinical and pre-clinical samples and studies. Using the WST-8 cell viability assay, a MTA+EM-induced anti-cancer/anti-growth activity in multiple cell lines was discovered (FIGS. 8-15). Other viability assays, for example, MTT, HoPI staining, dye exclusion (e.g. trypan blue), can be used readily. […] The cut-off value for classifying a “strong anti-cancer/anti-growth enhancement” was a response resulting in >70% reduction in cell survival compared to untreated control cells (100%), while showing greater reduction compared to both MTA and EM alone.

A-253 = experiment: WST-8 cell viability assay; settings: in combination with spermidine, 72 hours
Description: as §3, §4, §5

Calu-6 = experiment: WST-8 cell viability assay
Description: as §3, §4, §5

H2170 = experiment: WST-8 cell viability assay; settings: in combination with GSK-458, 72 hours
Description: as §3, §4, §5

Ca9-22 = experiment: WST-8 cell viability assay; settings: in combination with osimertinib, 72 hours
Description: as §3, §4, §5

CAL27 cells = experiment: Western blot of protein biomarkers; settings: GSK-795 (10 nM)+IFN-γ (50 ng/mL)
Description: as §1, §2

[1] = tested on: panel of cell lines that included NSCLC, HNSCC, melanoma, and CRC; experiment: WST8 in vitro sensitivity to MTAs with and without EM
Description: as §3
We used a panel of cell lines that included NSCLC, HNSCC, melanoma, and CRC. These cell lines are a good model system harboring similar (epi)genetic changes found in patients' tumors. We used the WST8 assay to determine the in vitro sensitivity to various MTAs with and without EM1.

BICR-16 = experiment: WST-8 cell viability assay; settings: in combination with GSK-458, 72 hours
Description: as §3, §4, §5

OE21 = experiment: WST-8 cell viability assay; settings: in combination with trametinib, 72 hours
Description: as §3, §4, §5

HTB-38 = experiment: WST-8 cell viability assay
Description: as §3, §4, §5

CAL27 = experiment: WST-8 cell viability assay; settings: in combination with GSK-795, 72 hours
Description: as §3, §4, §5

BxPC-3 = experiment: WST-8 cell viability assay; settings: in combination with GSK-458, 72 hours
Description: as §3, §4, §5

Calu-6 cells = experiment: Western blot of protein biomarkers; settings: GSK-458 (100 nM)+TNF-β (50 ng/mL), 24 hours
Description: as §1, §2

[2] = 24 hours, compared to either MTA or EM alone
[3] = compared to either therapy alone
[4] = in combination with trametinib, 72 hours
[5] = in combination with GSK-458, 72 hours

interleukin 17 [EM5]
p-AKT (Ser473) expression (Ca9-22 cells; [2]): strong reduction in p-AKT (Ser473) expression
Ki67 expression (Ca9-22 cells; compared to both MTA and EM alone): enhanced reduction in Ki67 expression
PARP cleavage (HPAF-II cells; compared to MTA and EM alone): very strong PARP cleavage
p-AKT (Ser473) expression (HPAF-II cells; compared to either MTA or EM alone): strong reduction in p-AKT (Ser473) expression
Ki67 degradation and/or fragmentation pattern (HPAF-II cells; [3]): marked increase in the distinct degradation and/or fragmentation pattern of Ki67
anti-cancer/growth enhancement (WST-8 cell viability) (HPAF-II; [4]): moderate-to-strong anti-cancer/growth enhancement
anti-cancer/growth enhancement (WST-8 cell viability) (A-253): moderate-to-strong anti-cancer/growth enhancement
anti-cancer/growth enhancement (WST-8 cell viability) (Calu-6; [4]): moderate-to-strong anti-cancer/growth enhancement
anti-cancer/growth enhancement (WST-8 cell viability) (H2170): moderate-to-strong anti-cancer/growth enhancement
anti-cancer/growth enhancement (WST-8 cell viability) (Ca9-22): moderate-to-strong anti-cancer/growth enhancement

interferon-gamma [EM1, enhancer molecule, cytokine purchased from Sigma]
p-AKT (Ser473) expression (CAL27 cells; [2]): strong reduction in p-AKT (Ser473) expression
LC3II over LC3I expression (CAL27 cells; 24 hours, compared to either alone): marked increase in LC3II over LC3I expression
p62 expression (CAL27 cells; [3]): reduced p62 expression
response enhancement (in vitro sensitivity to various MTAs with and without EM, WST8) [1]: no, minimal and strong response enhancement
anti-cancer/growth enhancement (WST-8 cell viability) (BICR-16): moderate-to-strong anti-cancer/growth enhancement
anti-cancer/growth enhancement (WST-8 cell viability) (OE21): moderate-to-strong anti-cancer/growth enhancement
anti-cancer/growth enhancement (WST-8 cell viability) (HPAF-II; [5]): moderate-to-strong anti-cancer/growth enhancement
anti-cancer/growth enhancement (WST-8 cell viability) (HPAF-II; [4]): moderate-to-strong anti-cancer/growth enhancement
anti-cancer/growth enhancement (WST-8 cell viability) (HTB-38; [5]): moderate-to-strong anti-cancer/growth enhancement
anti-cancer/growth enhancement (WST-8 cell viability) (HTB-38; in combination with dabrafenib, 72 hours): moderate-to-strong anti-cancer/growth enhancement
anti-cancer/growth enhancement (WST-8 cell viability) (HTB-38; [4]): moderate-to-strong anti-cancer/growth enhancement
anti-cancer/growth enhancement (WST-8 cell viability) (CAL27): moderate-to-strong anti-cancer/growth enhancement
anti-cancer/growth enhancement (WST-8 cell viability) (Calu-6; in combination with GSK-795, 72 hours): moderate-to-strong anti-cancer/growth enhancement
anti-cancer/growth enhancement (WST-8 cell viability) (BxPC-3): moderate-to-strong anti-cancer/growth enhancement

B1: tumor necrosis factor-beta (protein, UniProt P01374 35-205, looked up)
Lymphotoxin-alpha: LPGVGLTPSAAQTARQHPKMHLAHSTLKPAAHLIGDPSKQNSLLWRANTDRAFLQDGFSLSNNSLLVPTSGIYFVYSQVVFSGKAYSPKATSSPLYLAHEVQLFSSQYPFHVPLLSSQKMVYPGLQEPWLHSMYHGAAFQLTQGDQLSTHTDGIPHLVLSPSTVFFGAFAL
notes: enhancer molecule, cytokine purchased from Sigma
PARP cleavage (Calu-6 cells; compared to MTA and EM alone): very strong PARP cleavage
Ki67 degradation and/or fragmentation pattern (Calu-6 cells; [3]): marked increase in the distinct degradation and/or fragmentation pattern of Ki67
anti-cancer/growth enhancement (WST-8 cell viability) (Ca9-22): anti-cancer/growth enhancement
